Assay results taken from ChEMBL document CHEMBL3576782, “Bacillusin A, an Antibacterial Macrodiolide from Bacillus amyloliquefaciens AP183” (J Nat Prod, 2015).
≈ marks a conversion by molar mass, not a printed value. Calls of active or inactive are those of the source. No cut-off for these calls is given here.

What was measured:
Staphylococcus aureus [1] = assay: Bactericidal activity against Staphylococcus aureus ATCC 29213 using fresh sample in DMSO after 24 to 48 hrs by CLSI method; type: functional
Staphylococcus aureus [2] = assay: Antibacterial activity against methicillin-resistant Staphylococcus aureus EAMC30 assessed as growth inhibition using fresh sample in DMSO by CLSI method; type: functional, organism-based
Enterococcus faecalis [3] = assay: Antibacterial activity against Enterococcus faecalis ATCC 29212 assessed as growth inhibition using fresh sample in DMSO by CLSI method; type: functional, organism-based
Enterococcus faecalis [4] = assay: Bactericidal activity against Enterococcus faecalis ATCC 29212 using fresh sample in DMSO after 24 to 48 hrs by CLSI method; type: functional
Enterococcus faecalis [5] = assay: Antibacterial activity against Enterococcus faecalis ATCC 51299 assessed as growth inhibition using fresh sample in DMSO by CLSI method; type: functional, organism-based
Enterococcus faecalis [6] = assay: Bactericidal activity against Enterococcus faecalis ATCC 51299 using fresh sample in DMSO after 24 to 48 hrs by CLSI method; type: functional
Staphylococcus aureus [7] = assay: Antibacterial activity against methicillin-resistant Staphylococcus aureus ATCC 33591 assessed as growth inhibition using fresh sample in DMSO at 100 ug/ml by CLSI method; type: functional, organism-based
Staphylococcus aureus [8] = assay: Bactericidal activity against methicillin-resistant Staphylococcus aureus ATCC 33591 using fresh sample in DMSO at 100 ug/ml after 24 to 48 hrs by CLSI method; type: functional, organism-based
Staphylococcus aureus [9] = assay: Antibacterial activity against Staphylococcus aureus ATCC 29213 assessed as growth inhibition using fresh sample in DMSO by CLSI method; type: functional, organism-based
Staphylococcus aureus [10] = assay: Antibacterial activity against methicillin-resistant Staphylococcus aureus ATCC 33591 assessed as growth inhibition using fresh sample in DMSO by CLSI method; type: functional, organism-based
Staphylococcus aureus [11] = assay: Bactericidal activity against methicillin-resistant Staphylococcus aureus ATCC 33591 using fresh sample in DMSO after 24 to 48 hrs by CLSI method; type: functional
Staphylococcus aureus [12] = assay: Bactericidal activity against methicillin-resistant Staphylococcus aureus EAMC30 using fresh sample in DMSO after 24 to 48 hrs by CLSI method; type: functional
Enterococcus faecium [13] = assay: Antibacterial activity against vancomycin-resistant Enterococcus faecium ATCC 700221 assessed as growth inhibition using fresh sample in DMSO by CLSI method; type: functional, organism-based
Enterococcus faecium [14] = assay: Bactericidal activity against vancomycin-resistant Enterococcus faecium ATCC 700221 using fresh sample in DMSO at 20 ug/ml after 24 to 48 hrs by CLSI method; type: functional, organism-based
Candida albicans = assay: Antifungal activity against Candida albicans ATCC 90028 at 20 ug/ml by CLSI method; type: functional, organism-based
[15] = Chemical stability in acetonitrile after 1 week by LC-MS analysis; type: physicochemical; details: 168 h
Enterococcus faecalis [16] = assay: Bactericidal activity against Enterococcus faecalis ATCC 51299 using fresh sample in DMSO at 100 ug/ml after 24 to 48 hrs by CLSI method; type: functional, organism-based

Row | SMILES | MBC (Staphylococcus aureus [1]) | IC50 (Staphylococcus aureus [2]) | MIC (Staphylococcus aureus [2]) | IC50 (Enterococcus faecalis [3]) | MIC (Enterococcus faecalis [3]) | MBC (Enterococcus faecalis [4]) | IC50 (Enterococcus faecalis [5]) | MIC (Enterococcus faecalis [5]) | MBC (Enterococcus faecalis [6]) | MIC (Staphylococcus aureus [9]) | IC50 (Staphylococcus aureus [10]) | MIC (Staphylococcus aureus [10]) | MBC (Staphylococcus aureus [11]) | MBC (Staphylococcus aureus [12]) | IC50 (Staphylococcus aureus [9]) | other results
1 | COc1cccc(OC)c1C(=O)N[C@@H]1C(=O)N2[C@@H]1SC(C)(C)[C@@H]2C(=O)O [METHICILLIN] | 12.5 µg/mL (≈ 32.9 µM) | 10.1 µg/mL (≈ 26.5 µM) | 50 µg/mL (≈ 131 µM) | 15.3 µg/mL (≈ 40.2 µM) | 25 µg/mL (≈ 65.7 µM) | 50 µg/mL (≈ 131 µM) | 14.2 µg/mL (≈ 37.3 µM) | 50 µg/mL (≈ 131 µM) | 50 µg/mL (≈ 131 µM) | 3.1 µg/mL (≈ 8.15 µM) | – | – | – | – | – | growth inhibition (GI) (Staphylococcus aureus [7]): inactive; Activity (Staphylococcus aureus [8]): inactive
2 | COc1cc(O)cc2c1C(=O)OC(CC(C)O)CC(O)C/C=C/C(O)CC(O)CC(O)C/C(C)=C/C=C/C=C/C=C/C=C/c1cc(O)cc(OC)c1C(=O)OC(CC(C)O)CC(O)C/C=C/C(O)CC(O)CC(O)C/C(C)=C/C=C/C=C/C=C/C=C/2 (configuration not stated) | 2.5 µg/mL (≈ 2.09 µM) | < 0.02 µg/mL | 0.6 µg/mL (≈ 0.501 µM) | 0.2 µg/mL (≈ 0.167 µM) | 0.6 µg/mL (≈ 0.501 µM) | 2.5 µg/mL (≈ 2.09 µM) | 0.2 µg/mL (≈ 0.167 µM) | 0.6 µg/mL (≈ 0.501 µM) | 1.2 µg/mL (≈ 1 µM) | 1.2 µg/mL (≈ 1 µM) | 0.04 µg/mL (≈ 0.0334 µM) | 1.2 µg/mL (≈ 1 µM) | 1.2 µg/mL (≈ 1 µM) | 0.6 µg/mL (≈ 0.501 µM) | 0.04 µg/mL (≈ 0.0334 µM) | IC50 (Enterococcus faecium [13]): 0.1 µg/mL (≈ 0.0835 µM); MIC (Enterococcus faecium [13]): 0.6 µg/mL (≈ 0.501 µM); Activity (Enterococcus faecium [14]): inactive; Activity (Candida albicans): inactive; Stability [15]: Unstable
3 | CN[C@H](CC(C)C)C(=O)N[C@H]1C(=O)N[C@@H](CC(N)=O)C(=O)N[C@H]2C(=O)N[C@H]3C(=O)N[C@H](C(=O)N[C@H](C(=O)O)c4cc(O)cc(O)c4-c4cc3ccc4O)[C@H](O)c3ccc(c(Cl)c3)Oc3cc2cc(c3O[C@@H]2O[C@H](CO)[C@@H](O)[C@H](O)[C@H]2O[C@H]2C[C@](C)(N)[C@H](O)[C@H](C)O2)Oc2ccc(cc2Cl)[C@H]1O [VANCOMYCIN] | 50 µg/mL (≈ 34.5 µM) | 0.2 µg/mL (≈ 0.138 µM) | 0.4 µg/mL (≈ 0.276 µM) | 1 µg/mL (≈ 0.69 µM) | 1.6 µg/mL (≈ 1.1 µM) | 50 µg/mL (≈ 34.5 µM) | 3.4 µg/mL (≈ 2.35 µM) | 6.2 µg/mL (≈ 4.28 µM) | – | 1.6 µg/mL (≈ 1.1 µM) | 0.8 µg/mL (≈ 0.552 µM) | 1.6 µg/mL (≈ 1.1 µM) | 1.6 µg/mL (≈ 1.1 µM) | 0.4 µg/mL (≈ 0.276 µM) | 0.7 µg/mL (≈ 0.483 µM) | Activity (Enterococcus faecalis [16]): inactive
